Measurements taken from the NIST ThermoML archive (doi:10.1021/acs.jced.6b00269).
Numbers after ± are expanded uncertainties.

Conditions: for viscosity / mass density: 101.33 kPa, Liquid; for viscosity: Cone and plate viscometry; for mass density: Vibrating tube method; for Normal melting temperature: Crystal, DTA; for Glass transition temperature: DSC

SMILES	viscosity (278.15 K) [mPa·s]	viscosity (283.15 K) [mPa·s]	mass density (283.15 K) [kg/m3]	viscosity (288.15 K) [mPa·s]	mass density (288.15 K) [kg/m3]	viscosity (293.15 K) [mPa·s]	mass density (293.15 K) [kg/m3]	mass density (295.15 K) [kg/m3]	viscosity (298.15 K) [mPa·s]	mass density (298.15 K) [kg/m3]	viscosity (303.15 K) [mPa·s]	mass density (303.15 K) [kg/m3]	viscosity (308.15 K) [mPa·s]	mass density (308.15 K) [kg/m3]	viscosity (313.15 K) [mPa·s]	mass density (313.15 K) [kg/m3]	mass density (318.15 K) [kg/m3]	mass density (323.15 K) [kg/m3]	mass density (328.15 K) [kg/m3]	mass density (333.15 K) [kg/m3]	also measured
CCCCCCCC[P+](CC)(CC)CC.O=[N+]([O-])c1c[n-]cn1 [triethyloctylphosphonium 4-nitroimidazolide]	1220 ± 110	804 ± 68	1037.8 ± 5.8	547 ± 44	1034.8 ± 5.8	382 ± 29	1031.8 ± 5.8	1030.6 ± 5.7	276 ± 20	1028.8 ± 5.7	204 ± 14	1025.8 ± 5.7	155 ± 11	1022.9 ± 5.7	120 ± 8	1020.1 ± 5.6	1017.2 ± 5.6	1014.3 ± 5.6	1011.4 ± 5.5	1008.5 ± 5.5	viscosity (318.15 K): 95 ± 6 mPa·s; viscosity (323.15 K): 76 ± 5 mPa·s; viscosity (328.15 K): 62 ± 4 mPa·s; viscosity (333.15 K): 52 ± 3 mPa·s; mass density (338.15 K): 1005.7 ± 5.5 kg/m3; mass density (343.15 K): 1002.8 ± 5.4 kg/m3; mass density (348.15 K): 1000 ± 5.4 kg/m3; mass density (353.15 K): 997.1 ± 5.4 kg/m3; Normal melting temperature: -28 ± 2 °C
CCCCCCCC[P+](CC)(CC)CC.O=[N+]([O-])c1cn[n-]c1 [triethyloctylphosphonium 4-nitropyrazolide]	1100 ± 100	716 ± 60	1040.1 ± 5.9	480 ± 38	1037 ± 5.8	333 ± 25	1033.9 ± 5.8	1032.7 ± 5.8	238 ± 17	1030.9 ± 5.7	175 ± 12	1027.9 ± 5.7	133 ± 9	1024.9 ± 5.7	103 ± 7	1022 ± 5.6	1019 ± 5.6	1016.1 ± 5.6	1013.2 ± 5.5	1010.2 ± 5.5	viscosity (318.15 K): 81 ± 5 mPa·s; viscosity (323.15 K): 65 ± 4 mPa·s; viscosity (328.15 K): 53 ± 4 mPa·s; mass density (338.15 K): 1007.3 ± 5.5 kg/m3; mass density (343.15 K): 1004.4 ± 5.4 kg/m3; mass density (348.15 K): 1001.5 ± 5.4 kg/m3; mass density (353.15 K): 998.6 ± 5.4 kg/m3; Normal melting temperature: 5 ± 2 °C; Glass transition temperature: -72 ± 2 °C
CCCCCCCC[P+](CC)(CC)CC.O=S(=O)([N-]S(=O)(=O)C(F)(F)F)C(F)(F)F [triethyloctylphosphonium bis(trifluoromethylsulfonyl)imide]	379 ± 29	268 ± 20	1256.3 ± 8.6	194 ± 14	1252.2 ± 8.5	145 ± 10	1248.1 ± 8.5	1246.6 ± 8.5	111 ± 8	1244.2 ± 8.4	87 ± 6	1240.2 ± 8.4	73 ± 5	1236.2 ± 8.3	57 ± 4	1232.2 ± 8.3	1228.2 ± 8.2	1224.2 ± 8.2	1220.2 ± 8.1	1216.3 ± 8.1	mass density (338.15 K): 1212.3 ± 8 kg/m3; mass density (343.15 K): 1208.4 ± 7.9 kg/m3; mass density (348.15 K): 1204.4 ± 7.9 kg/m3; mass density (353.15 K): 1200.5 ± 7.8 kg/m3
CCCCCCCCCCCCCC[P+](CCCCCC)(CCCCCC)CCCCCC.Cc1ncc([N+](=O)[O-])[n-]1 [trihexyl(tetradecyl)phosphonium 2-methyl-5-nitroimidazolide]	5890 ± 650	3730 ± 390	948.1 ± 4.9	2420 ± 240	945.1 ± 4.9	1620 ± 150	941.9 ± 4.8	940.6 ± 4.8	1110 ± 100	938.7 ± 4.8	786 ± 66	935.7 ± 4.8	569 ± 46	932.8 ± 4.8	420 ± 32	929.8 ± 4.7	926.9 ± 4.7	924 ± 4.7	921.1 ± 4.7	918.2 ± 4.6	viscosity (318.15 K): 317 ± 24 mPa·s; viscosity (323.15 K): 244 ± 18 mPa·s; viscosity (328.15 K): 192 ± 13 mPa·s; viscosity (333.15 K): 153 ± 11 mPa·s; viscosity (338.15 K): 125 ± 8 mPa·s; mass density (338.15 K): 915.3 ± 4.6 kg/m3; mass density (343.15 K): 912.5 ± 4.6 kg/m3; mass density (348.15 K): 909.6 ± 4.6 kg/m3; mass density (353.15 K): 906.8 ± 4.6 kg/m3; Glass transition temperature: -79 ± 2 °C
CCCCCCCCCCCCCC[P+](CCCCCC)(CCCCCC)CCCCCC.Clc1nc[n-]c1Cl [trihexyl(tetradecyl)phosphonium 4,5-dichloroimidazolide]	4040 ± 420	2580 ± 260	974.1 ± 5.1	1680 ± 160	970.8 ± 5.1	1140 ± 100	967.5 ± 5.1	966.2 ± 5.1	789 ± 66	964.4 ± 5	566 ± 45	961.3 ± 5	415 ± 32	958.3 ± 5	308 ± 23	955.2 ± 4.9	952.2 ± 4.9	949.1 ± 4.9	946.2 ± 4.9	943.2 ± 4.8	viscosity (318.15 K): 234 ± 17 mPa·s; viscosity (323.15 K): 182 ± 13 mPa·s; viscosity (328.15 K): 144 ± 10 mPa·s; viscosity (333.15 K): 116 ± 8 mPa·s; mass density (338.15 K): 940.2 ± 4.8 kg/m3; mass density (343.15 K): 937.2 ± 4.8 kg/m3; mass density (348.15 K): 934.2 ± 4.8 kg/m3; mass density (353.15 K): 931.3 ± 4.7 kg/m3; Glass transition temperature: -64 ± 2 °C
CCCCCCCCCCCCCC[P+](CCCCCC)(CCCCCC)CCCCCC.N#Cc1nc[n-]c1C#N [trihexyl(tetradecyl)phosphonium 4,5-dicyanoimidazolide]	2490 ± 240	1630 ± 150	928.9 ± 4.7	1090 ± 100	925.7 ± 4.7	754 ± 63	922.6 ± 4.7	921.5 ± 4.7	535 ± 43	919.7 ± 4.7	391 ± 30	916.8 ± 4.6	291 ± 21	913.9 ± 4.6	220 ± 16	911 ± 4.6	908.1 ± 4.6	905.2 ± 4.5	902.4 ± 4.5	899.6 ± 4.5	viscosity (318.15 K): 171 ± 12 mPa·s; viscosity (323.15 K): 135 ± 9 mPa·s; viscosity (328.15 K): 108 ± 7 mPa·s; viscosity (333.15 K): 88 ± 6 mPa·s; viscosity (338.15 K): 73 ± 5 mPa·s; mass density (338.15 K): 896.7 ± 4.5 kg/m3; mass density (343.15 K): 893.9 ± 4.5 kg/m3; mass density (348.15 K): 891 ± 4.4 kg/m3; mass density (353.15 K): 888.2 ± 4.4 kg/m3; Glass transition temperature: -78 ± 2 °C
